From patent publication US10357500B2, “Neuro-protective agents and uses thereof” (Guangzhou Cellprotek Pharmaceutical Co., Ltd., priority 2014, dated 2019)
Entries after “also recorded” stand apart in the source; their conditions may differ.

Columns and labels:
Format in all cases: in vivo
[1] = test system: Macaca fascicularis in acute hypobaric hypoxia; test: Neurological score, acute hypobaric hypoxia model (simulated 7,500 m); settings: for neurological function / neurological score (in words): acute hypobaric hypoxia, simulated 7,500 meters, vs solvent control
Source text: (§1) 17 healthy male Macaca fascicularis, 6 to 6.5 years-old, weighted 6.8-7.5 kg, were used. The use of laboratory animals is approved by Committee of laboratory animal management and use and experimental animal ethics committee. The experiment scheme complies with rules concerning animal protection, animal welfare and ethical principles. The 17 Macaca fascicularis were grouped randomly into 3 groups (Table 1).
(§2) The low pressure chamber group is a platform used to simulate low temperature and low pressure plateau environment. The system can be manipulated to simulate a low pressure environment having any altitude below 10000 meters and any temperature above −30° C. The ascending velocity: 3 m/second (0 to 6000 m); descending velocity: 2 m/second (6000 m to 7500 m); constant temperature: 22° C.; average air flow velocity: 150 m^3/h.
(§3) (1) An altitude of 7,500 meters was simulated by manipulation of the low-pressure chamber to cause acute hypoxia in Macaca fascicularis.
(§4) The Macaca fascicularis raised in the laboratory animal housing were labeled and transferred to the low-pressure chamber. The Macaca fascicularis was fed for 1 more day in the chamber in order to make them adapt to the experimental environment. The pressure in the low-pressure chamber was adjusted to simulate altitudes of 3,000, 4,500, and 6,000 meters, staying at each altitude for 30 minutes, followed by simulation of an altitude of […] for 24 hours. The animals were then treated with drugs individually at pre-determined doses. After treatment at 7,500 meters for 48 hours, the altitude was decreased to 6,000 meters at a velocity of 3 m/s. The animals were subject to ketamine anesthesia, sacrificed, dissected and subject to sampling. The samples were fixed. Animals grouped in plain controls were raised in an animal housing at an altitude of 350 m before assessment and sacrifice.
(§5) (2) The animals in 5α-androstane-3β,5,6β-triol treatment group were administered through intravenous injection 10 mL of 5α-androstane-3β,5,6β-triol solution in glucose saline at a dosage of 10 mg/kg before simulation, after 30 min at 3,000 meters, and after 30 min at 4,500 meters, respectively. The animals in solvent control group were given 10 mL of glucose saline through intravenous injection.
(3) The animals in 5α-androstane-3β,5,6β-triol treatment group were administered by skeletal muscle injection at 5 different points with 5α-androstane-3β,5,6β-triol sustained-release formulation at a dosage of 30 mg/kg after 30 min at 6,000 meters. Acute plateau hypoxia models were administered 10 mL of glucose saline through intravenous injection. […]
Animals were stayed at simulated altitude of 7,500 meters for 24 hours before descending to 6,000 meters at a speed of 3 m/s. The neurological scores were evaluated and recorded according to a reported method (Zhu et al, An improved method of neurological score for non-human primates, Chinese Journal of Comparative Medicine, 2011, 21 (9): 58-62). The neurological score was evaluated and recorded by two trained observers who were neither aware of the grouping nor involved in the drug administering. […]
The results were indicated as mean±standard deviation, and statistically analyzed by software SigmaPlot. […]

[2] = test system: Macaca fascicularis in acute hypobaric hypoxia; test: Cerebral water content of left hemisphere, acute hypobaric hypoxia model; settings: for Cerebral Water Content (%): left hemisphere, 48 hours at simulated 7,500 meters, 10 mg/kg i.v. and 30 mg/kg i.m., repeated after 24 hours; for increase of cerebral water content (in words): acute hypobaric hypoxia, simulated 7,500 meters, vs solvent control
Source text: as §1, §2, §3, §4, §5
(§6) (3) The animals in 5α-androstane-3β,5,6β-triol treatment group were administered by skeletal muscle injection at 5 different points with 5α-androstane-3β,5,6β-triol sustained-release formulation at a dosage of 30 mg/kg after 30 min at 6,000 meters. Acute plateau hypoxia models were administered 10 mL of glucose saline through intravenous injection.
(4) The animals in 5α-androstane-3β,5,6β-triol treatment group were administered through intravenous injection 10 mL of 5α-androstane-3β,5,6β-triol injection in glucose saline at a dosage of 10 mg/kg after 24 hours at 7,500 meters, and further by skeletal muscle injection at 5 different points with 5α-androstane-3β,5,6β-triol sustained-release formulation at a dosage of 30 mg/kg. […]
Cerebral water content was measured according to a reported method (Patir H, Sarada S K, Singh S, Mathew T, Singh B, Bansal A. Quercetin as a prophylactic measure against high altitude cerebral edema. Free Radic Biol Med 2012 Aug. 15; 53(4):659-68). […] Brains of the animals were rapidly taken out and the wet weights of the left hemispheres were measured. The left hemispheres were then placed in a drying oven at 60° C., and were measured their weights daily at a fixed time until no weight change was observed. […]

[3] = test system: Macaca fascicularis in acute hypobaric hypoxia; test: Transmission electron microscopy of the cortical tissue of the frontal lobe (vasogenic edema); settings: frontal lobe cortex, transmission electron microscope, vs solvent control
Source text: as §1, §2, §3, §4, §5, §6
(4) The animals in 5α-androstane-3β,5,6β-triol treatment group were administered through intravenous injection 10 mL of 5α-androstane-3β,5,6β-triol injection in glucose saline at a dosage of 10 mg/kg after 24 hours at 7,500 meters, and further by skeletal muscle injection at 5 different points with 5α-androstane-3β,5,6β-triol sustained-release formulation at a dosage of 30 mg/kg. Acute plateau hypoxia models were administered 10 mL of glucose saline through intravenous injection.
The cortical tissues of the frontal lobes of the animals were taken out and cut to provide brain pieces of 1 mm^3, which were fixed in a stationary liquid of 2.5% glutaraldehyde to prepare ultrathin sections. The morphology of neurons and the structure of blood vessels were observed by transmission electron microscopy.

[4] = test system: Macaca fascicularis in acute hypobaric hypoxia; test: HE staining of the cortical tissue of the frontal lobe (neuronal vacuolar degeneration); settings: frontal lobe cortex, vs solvent control
Source text: as §1, §2, §3
The Macaca fascicularis raised in the laboratory animal housing were labeled and transferred to the low-pressure chamber. The Macaca fascicularis was fed for 1 more day in the chamber in order to make them adapt to the experimental environment. […] The animals were then treated with drugs individually at pre-determined doses. […]

C[C@@]12CCC[C@H]1[C@@H]1C[C@@H](O)[C@@]3(O)C[C@@H](O)CC[C@]3(C)[C@H]1CC2 [5α-androstane-3β,5,6β-triol]
neurological score ([1]; 24 hours at simulated 7,500 meters, 10 mg/kg i.v. x3 and 30 mg/kg i.m. sustained-release, solvent control 31.6±4.2, mean±SD): 20.5±5.7
neurological function / neurological score (in words) [1]: significantly improved
Cerebral Water Content (%) ([2]; plain control 76.155, solvent control 76.714): 76.283 ± 0.235 %
Cerebral Water Content (%) ([2]; plain control 76.155, solvent control 76.714, listed as 5α-androstane-3β3,5,6β-triol): 76.283%
vasogenic edema / Virchow-Robin space of cortical capillary vessels (in words) [3]: reduced; also recorded: no significant vasogenic edema occurred
neuronal vacuolar degeneration (in words) [4]: reduced neuronal vacuolar degeneration

CC(C)CCC[C@@H](C)[C@H]1CC[C@H]2[C@@H]3C[C@@H](O)[C@@]4(O)C[C@@H](O)CC[C@]4(C)[C@H]3CC[C@]12C [Compound I, cholestane-3β,5α,6β-triol]
vasogenic edema / Virchow-Robin space of cortical capillary vessels (in words) [3]: effectively reduce
neuronal vacuolar degeneration (in words) [4]: effectively reduce

CCC=C1CC[C@H]2[C@@H]3C[C@@H](O)[C@@]4(O)C[C@@H](O)CC[C@]4(C)[C@H]3CC[C@]12C [Compound II, 17-propylidene-androstane-3β,5α,6β-triol]
neurological function / neurological score (in words) [1]: effectively protected
increase of cerebral water content (in words) [2]: inhibited increase of the cerebral water content
vasogenic edema / Virchow-Robin space of cortical capillary vessels (in words) [3]: no significant angioedema

CC(C)C1CC[C@H]2[C@@H]3C[C@@H](O)[C@@]4(O)C[C@@H](O)CC[C@]4(C)[C@H]3CC[C@]12C (stereo partly drawn) [Compound III, 17-isopropyl-androstane-3β,5α,6β-triol]
neurological function / neurological score (in words) [1]: effectively protected
increase of cerebral water content (in words) [2]: inhibited increase of the cerebral water content
vasogenic edema / Virchow-Robin space of cortical capillary vessels (in words) [3]: no significant angioedema

CCCCC1CC[C@H]2[C@@H]3C[C@@H](O)[C@@]4(O)C[C@@H](O)CC[C@]4(C)[C@H]3CC[C@]12C (stereo partly drawn) [Compound IV, 17-butyl-androstane-3β,5α,6β-triol]
neurological function / neurological score (in words) [1]: effectively protected
increase of cerebral water content (in words) [2]: inhibited increase of the cerebral water content
vasogenic edema / Virchow-Robin space of cortical capillary vessels (in words) [3]: no significant angioedema
